Experimental findings from patent publication US9669034B2, “4-aryl-N-phenyl-1,3,5-triazin-2-amines containing a sulfoximine group” (BAYER INTELLECTUAL PROPERTY GMBH, priority 2011, dated 2017) are described below.

Converted amounts (≈) assume the structure as drawn. Like-named read-outs stand apart in the source and are kept apart here.

Data set [1] concerns the target CDK2/CycE (Homo sapiens (Human), UniProt P24941). As to the kind of experiment: CDK2/CycE kinase assay (TR-FRET). Type of data set: biochemical. To be noted: Method 2. In short, it runs like this: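 TR-FRET measurement of inhibition of phosphorylation of a biotinylated peptide substrate. Enzyme complex consisted of human CDK2 and CycE, each as a GST fusion made in Sf9 cells and purified over glutathione-Sepharose.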
(In general: Time-resolved FRET reads energy transfer from a long-lived donor to a nearby acceptor.)

Data set [2] is described as follows: Equilibrium shake flask solubility assay. Type of data set: physicochemical. To be noted: pH 6.5, equilibrium shake flask method; for solubility thermodynamic at 24 h: phosphate buffer, pH 6.5, aqueous buffer, thermodynamic from solid, water. On the procedure:
4. Equilibrium Shake Flask Solubility Assay:
The thermodynamic solubility of compounds in water was determined by an equilibrium shake flask method (see for example: E. H. Kerns, L. Di: Drug-like Properties: Concepts, Structure Design and Methods, 276-286, Burlington, Mass., Academic Press, 2008). A saturated solution of the drug was prepared and the solution was mixed for 24 h to ensure that equilibrium was reached. The solution was centrifuged to remove the insoluble fraction and the concentration of the compound in solution was determined using a standard calibration curve.
To prepare the sample, 2 mg solid compound was weighed in a 4 mL glass vial. 1 mL phosphate buffer pH 6.5 was added. The suspension was stirred for 24 hrs at room temperature. The solution was centrifuged afterwards. To prepare the sample for the standard calibration, 2 mg solid sample was dissolved in 30 mL acetonitrile. After sonification the solution was diluted with water to 50 mL. Sample and standards were quantified by HPLC with UV-detection. For each sample two injection volumes (5 and 50 μl) in triplicates were made. Three injection volumes (5 μl, 10 μl and 20 μl) were made for the standard.
Chromatographic Conditions:
The areas of sample- and standard injections as well as the calculation of the solubility value (in mg/l) were determined by using HPLC software (Waters Empower 2 FR).

The target of data set [3] is CDK9/CycT1 (Homo sapiens (Human), UniProt P50750). As to the kind of experiment: CDK9/CycT1 kinase assay (TR-FRET). Type of data set: biochemical. To be noted: Method 1. In short, it runs like this: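 TR-FRET read-out of kinase inhibition, with a biotin-Ttds-tagged peptide as substrate. Enzyme: human CDK9 and CycT1, full-length with His tags, produced in insect cells and purified on Ni-NTA.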
Chain of CDK9/CycT1 (P50750 whole entry): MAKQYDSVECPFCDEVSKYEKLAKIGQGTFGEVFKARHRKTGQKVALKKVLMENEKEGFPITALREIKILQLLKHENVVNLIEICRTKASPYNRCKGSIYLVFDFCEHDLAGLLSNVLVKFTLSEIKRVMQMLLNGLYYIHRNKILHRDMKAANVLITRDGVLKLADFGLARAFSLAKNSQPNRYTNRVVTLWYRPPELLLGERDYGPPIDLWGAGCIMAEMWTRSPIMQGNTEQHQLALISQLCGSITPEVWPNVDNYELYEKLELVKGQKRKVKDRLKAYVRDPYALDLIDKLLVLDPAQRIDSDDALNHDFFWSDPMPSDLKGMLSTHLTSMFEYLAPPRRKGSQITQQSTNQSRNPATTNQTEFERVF
Chain of CDK9/CycT1 (O60563 whole entry partner): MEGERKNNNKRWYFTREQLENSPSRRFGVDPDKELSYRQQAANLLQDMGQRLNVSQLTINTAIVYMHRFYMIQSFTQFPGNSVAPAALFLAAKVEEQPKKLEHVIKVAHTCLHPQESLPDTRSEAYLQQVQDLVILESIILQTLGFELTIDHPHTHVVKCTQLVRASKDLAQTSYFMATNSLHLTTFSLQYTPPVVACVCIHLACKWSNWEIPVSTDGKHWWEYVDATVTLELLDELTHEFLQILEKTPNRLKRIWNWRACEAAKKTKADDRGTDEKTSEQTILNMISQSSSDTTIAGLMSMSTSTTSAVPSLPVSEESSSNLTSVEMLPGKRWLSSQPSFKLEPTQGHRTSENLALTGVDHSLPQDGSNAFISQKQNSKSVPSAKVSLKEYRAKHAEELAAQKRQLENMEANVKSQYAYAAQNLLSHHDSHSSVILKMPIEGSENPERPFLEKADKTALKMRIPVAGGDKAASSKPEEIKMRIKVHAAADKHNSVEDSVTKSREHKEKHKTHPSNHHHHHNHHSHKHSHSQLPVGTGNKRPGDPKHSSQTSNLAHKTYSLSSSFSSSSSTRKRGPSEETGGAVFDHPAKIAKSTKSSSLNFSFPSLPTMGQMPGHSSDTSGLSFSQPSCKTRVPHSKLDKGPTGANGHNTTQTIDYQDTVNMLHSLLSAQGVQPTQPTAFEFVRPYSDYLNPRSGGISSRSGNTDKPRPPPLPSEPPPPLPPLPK

Data set [4] has as its system HeLa human cervical tumour cells. The experiment in a line: Proliferation assay (crystal violet), HeLa. Type of data set: cell-based. The settings on record: Method 3, read-out: Inhibition of HeLa cell proliferation, IC50. In a few lines:
(§1)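 4-day compound exposure ([…]; DMSO 0.5%) starting 24 h post-plating. Densities: NCI-H460 and HeLa 3000, HeLa-MaTu-ADR 5000, Caco-2 1500 cells/well; 10% FCS. Glutaraldehyde fix, crystal violet stain, A595.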

Data set [5] has as its system HeLa-MaTu-ADR, multidrug-resistant human cervical carcinoma cells. As to the kind of experiment: Proliferation assay (crystal violet), HeLa-MaTu-ADR. It counts as cell-based. To be noted: Homo sapiens, HeLa, Method 3, read-out: Inhibition of HeLa/MaTu/ADR cell proliferation, IC50. In a few lines: as §1
The test system of data set [6] is NCI-H460, human non-small cell lung carcinoma cells. The experiment in a line: Proliferation assay (crystal violet), NCI-H460. It counts as cell-based. The settings on record: Homo sapiens, NCI-H460, NCI-H460 cells, Method 3; read-out: Inhibition of NCI-H460 cell proliferation, IC50. In short, it runs like this:
as §1

Data set [7] concerns DU145, hormone-independent human prostate carcinoma cells. As to the kind of experiment: Proliferation assay (crystal violet), DU145. It counts as cell-based. The settings on record: Homo sapiens, DU-145, DU145 cells, Method 3; read-out: Inhibition of DU145 cell proliferation, IC50. In a few lines: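 Proliferation of DU145 cells was measured with crystal violet. Cells were fixed with 20 μL 11% glutaric aldehyde for 15 minutes, washed, dried, stained with 100 μL 0.1% crystal violet (pH 3.0), washed again, and the dye was dissolved in 10% acetic acid. Absorbance at 595 nm was normalized to the zero-point plate and untreated cells, and IC50 came from a 4 parameter fit.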

The subject of data set [8] is Caco-2 human colorectal carcinoma. The experiment in a line: Proliferation assay (crystal violet), Caco-2. Type of data set: cell-based. The settings on record: Homo sapiens, Caco-2, Caco-2 cells, Method 3; read-out: Inhibition of Caco-2 cell proliferation, IC50. In a few lines: as §1
The subject of data set [9] is B16F10 mouse melanoma cells. The experiment in a line: Proliferation assay (crystal violet), B16F10. Type of data set: cell-based. To be noted: Mus musculus, B16-F10, B16F10 cells, Method 3; read-out: Inhibition of B16F10 cell proliferation, IC50. In a few lines:
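Proliferation was read out by crystal violet staining. Cells were fixed for 15 minutes at room temperature with 20 μL of 11% glutaric aldehyde, washed three times with water, dried, and stained with 100 μL of 0.1% crystal violet (pH 3.0). After washing and drying, the dye was dissolved in 100 μL of 10% acetic acid and absorbance measured at 595 nm. Values were normalized to the zero-point plate (0%) and untreated cells (100%), and IC50 was obtained by a 4 parameter fit.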

As a reminder, the solubility (thermodynamic) is solubility found after equilibrating the solid with the medium. On to `CS(=N)(=O)Cc1cccc(Nc2ncnc(-c3cccc4c3OCCC4)n2)c1` (single isomer, unassigned) [Example 31, 4-(3,4-Dihydro-2H-chromen-8-yl)-N-{3-[(S-methylsulfonimidoyl)methyl]phenyl}-1,3,5-triazin-2-amine], for which the IC50 in [1] stood at 670 nM. In data set [2], this compound yielded a solubility (thermodynamic) at 24 h of 1000 µg/mL (≈ 2530 µM).

As to `CC#CCOc1cc(F)ccc1-c1ncnc(Nc2cccc(CS(C)(=N)=O)c2)n1` (racemic) [Example 73, (rac)-4-[2-(But-2-yn-1-yloxy)-4-fluorophenyl]-N-{3-[(S-methylsulfonimidoyl)methyl]phenyl}-1,3,5-triazin-2-amine], the IC50 in data set [3] worked out at 8 nM; in data set [1], 820 nM; in [4] (Homo sapiens, HeLa), 240 nM; in [5], 280 nM; in [6] it was 260 nM; in data set [7], 200 nM. Further, the values for the IC50 in data set [8] and in data set [9] were 300 nM and 150 nM, respectively. In addition, in data set [2], the thermodynamic solubility at 24 h is 1220 µg/mL (≈ 2870 µM).

Regarding `CCOc1cc(F)ccc1-c1ncnc(Nc2cccc(CS(C)(=N)=O)c2)n1` (racemic) [Example 88, (rac)-4-(2-Ethoxy-4-fluorophenyl)-N-{3-[(S-methylsulfonimidoyl)methyl]phenyl}-1,3,5-triazin-2-amine], the IC50 is 11 nM in data set [3]; 1300 nM in [1]; 380 nM in data set [4] (Homo sapiens, HeLa); 700 nM in [5]; 890 nM in [6]; 730 nM in data set [7]. Also, the IC50 in [8] was 780 nM; in [9], 810 nM. The thermodynamic solubility at 24 h in data set [2] amounted to 884 µg/mL (≈ 2200 µM).

With `COc1cc(F)c(F)cc1-c1ncnc(Nc2cccc(CS(C)(=N)=O)c2)n1` (racemic) [Example 10, (rac)-4-(4,5-Difluoro-2-methoxyphenyl)-N-{3-[(S-methylsulfonimidoyl)methyl]phenyl}-1,3,5-triazin-2-amine], the IC50 was found to be 28 nM in [3]; 1300 nM in [1]; 1100 nM in [4] (Homo sapiens, HeLa). In data set [2], this compound returned a thermodynamic solubility at 24 h of 130 µg/mL (≈ 321 µM).

In the case of `COc1cc(F)ccc1-c1ncnc(Nc2cc(F)cc(CS(C)(=N)=O)c2)n1` (single isomer, unassigned) [Example 54, 4-(4-Fluoro-2-methoxyphenyl)-N-{3-fluoro-5-[(S-methylsulfonimidoyl)methyl]phenyl}-1,3,5-triazin-2-amine], the IC50 in [1] is 850 nM. In [2], this compound came in with a solubility (thermodynamic) at 24 h of 120 µg/mL (≈ 296 µM).

`CS(=N)(=O)Cc1cccc(Nc2ncnc(-c3cccc4c3OCCO4)n2)c1` (single isomer, unassigned) [Example 39, 4-(2,3-Dihydro-1,4-benzodioxin-5-yl)-N-{3-[(S-methylsulfonimidoyl)methyl]phenyl}-1,3,5-triazin-2-amine]: the IC50 worked out at 29 nM in [3]; 1500 nM in data set [1]; 1100 nM in data set [4] (Homo sapiens, HeLa). The same compound registered a solubility (thermodynamic) at 24 h in data set [2] of 819 µg/mL (≈ 2060 µM).

As to `COc1cc(F)ccc1-c1ncnc(Nc2cccc(CS(C)(=O)=NC#N)c2)n1` (single isomer, unassigned) [Example 49, [(3-{[4-(4-fluoro-2-methoxyphenyl)-1,3,5-triazin-2-yl]amino}benzyl)(methyl)oxido-λ^6-sulfanylidene]cyanamide], the values for the IC50 in [3] and in [1] were 7 nM and 650 nM, respectively. In addition, the solubility (thermodynamic) at 24 h in data set [2] came out at 88 µg/mL (≈ 213 µM).

For the compound `CNC(=O)N=S(C)(=O)Cc1cccc(Nc2ncnc(-c3ccc(F)cc3OC)n2)c1` (single isomer, unassigned; (+)) [Example 17, (+)-1-[(3-{[4-(4-Fluoro-2-methoxyphenyl)-1,3,5-triazin-2-yl]amino}benzyl)(methyl)oxido-λ^6-sulfanylidene]-3-methylurea], the IC50 in data set [3] is 14 nM; in [1], 1200 nM; in data set [4], 580 nM; in [5] it was 600 nM; in data set [6], 540 nM; in data set [7], 580 nM. The IC50 in data set [8] worked out at 800 nM; in data set [9] it was 410 nM. The “Thermodynamic solubility in water at pH 6.5” value (“Thermodynamic solubility” for short) in data set [2] is 429 mg/l.

For `CNC(=O)N=S(C)(=O)Cc1cccc(Nc2ncnc(-c3ccc(F)cc3OC)n2)c1` (single isomer, unassigned; (-)) [Example 16, (−)-1-[(3-{[4-(4-Fluoro-2-methoxyphenyl)-1,3,5-triazin-2-yl]amino}benzyl)(methyl)oxido-λ^6-sulfanylidene]-3-methylurea], the IC50 in data set [3] turned out to be 19 nM; in [1], 1100 nM; in data set [4] (Homo sapiens, HeLa), 950 nM. Further, the solubility (thermodynamic) at 24 h in data set [2] is 323 µg/mL (≈ 727 µM).

Take `CCCOc1cc(F)ccc1-c1ncnc(Nc2cccc(CS(C)(=N)=O)c2)n1` (racemic) [Example 91, (rac)-4-(4-Fluoro-2-propoxyphenyl)-N-{3-[(S-methylsulfonimidoyl)methyl]phenyl}-1,3,5-triazin-2-amine]: the IC50 in data set [3] is 29 nM; in data set [1] it was 2300 nM; in data set [4] (Homo sapiens, HeLa), 1100 nM. Besides, in data set [2], the solubility (thermodynamic) at 24 h worked out at 104 µg/mL (≈ 250 µM).

For the compound `COc1ccc(F)cc1-c1ncnc(Nc2cccc(CS(C)(=N)=O)c2)n1` (single isomer, unassigned) [Example 23, 4-(5-Fluoro-2-methoxyphenyl)-N-{3-[(S-methylsulfonimidoyl)methyl]phenyl}-1,3,5-triazin-2-amine], the IC50 was found to be 110 nM in data set [3] and 5600 nM in data set [1]. The “Thermodynamic solubility” value in data set [2] came out at 888 mg/l.

Compound `CS(=N)(=O)Cc1cccc(Nc2ncnc(-c3cccc4c3OCCC4)n2)c1` (single isomer, unassigned) [Example 32, 4-(3,4-Dihydro-2H-chromen-8-yl)-N-{3-[(S-methylsulfonimidoyl)methyl]phenyl}-1,3,5-triazin-2-amine] gave an IC50 in [1] of 1600 nM. Further, the “Thermodynamic solubility” value in data set [2] worked out at 1000 mg/l.

As to `CS(=N)(=O)Cc1cccc(Nc2ncnc(-c3cccc4c3OCCO4)n2)c1` (single isomer, unassigned) [Example 40, 4-(2,3-Dihydro-1,4-benzodioxin-5-yl)-N-{3-[(S-methylsulfonimidoyl)methyl]phenyl}-1,3,5-triazin-2-amine], the IC50 in data set [3] was 25 nM; in data set [1] it was 1800 nM; in data set [4] it was 1100 nM. Moreover, the “Thermodynamic solubility” value in data set [2] came to 865 mg/l.

As to `COc1ccc(F)cc1-c1ncnc(Nc2cccc(CS(C)(=N)=O)c2)n1` (single isomer, unassigned) [Example 22, 4-(5-Fluoro-2-methoxyphenyl)-N-{3-[(S-methylsulfonimidoyl)methyl]phenyl}-1,3,5-triazin-2-amine], the IC50 in data set [3] is 91 nM; in data set [1], 2800 nM. Further, the solubility (thermodynamic) at 24 h in data set [2] turned out to be 787 µg/mL (≈ 2030 µM).

For `COc1cc(F)ccc1-c1ncnc(Nc2cc(C)cc(CS(C)(=O)=NC#N)c2)n1` (racemic) [Example 111, (rac)-[(3-{[4-(4-Fluoro-2-methoxyphenyl)-1,3,5-triazin-2-yl]amino}-5-methylbenzyl)(methyl)oxido-λ^6-sulfanylidene]cyanamide], the IC50 in data set [3] worked out at 3 nM; in data set [1], 250 nM; in data set [4] (Homo sapiens, HeLa), 100 nM; in [5], 170 nM; in data set [6] it was 270 nM; in [7], 110 nM. For the same compound, the IC50 in data set [8] is 220 nM; in [9] it was 130 nM.
